In patent US20260159486A1, “BENZO[H]QUINAZOLINE-4-AMINE DERIVATIVES FOR THE TREATMENT OF CANCER” (Redona Therapeutics, Inc., priority 2021, published 2026):
pIC50: −log10 of the molar value.

Legend:
[1] = system: phospho-SRSF6 in MDA-MB-468 cells; experiment: Inhibition of phospho-SRSF6 levels in MDA-MB-468 cells (Western blot); format: cell-based; conditions: Homo sapiens, 2 hours, compared to DMSO control
Description: FIG. 1: FIG. 1 provides a representative Western blot showing reduction of phosphorylated-SRSF6 (P—SRSF6) in MDA-MB 468 cells by compounds of the invention. GAPDH was probed for by Western blotting to control for equal protein loading and for normalization of samples. The numbers below the blots show percent inhibition of the P—SRSF6 signal at 100 nM (A) or 10 nM (B) compared to DMSO control.
Assessment of Inhibition of Phospho-SRSF6 Levels in MDA-MB-468 Cells
MDA-MB-468 cells (ATCC, HTB-132) were cultured in DMEM (BioConcept cat. no. 1-26F03) supplemented with 10% FBS (Sigma cat. no. F9665), […] (Sigma cat. no. S8636), 1% Penicillin-Streptomycin (BioConcept cat. no. 4-01FOO-H). When cells reached a density of 70% o in 6-well plates (TPP cat. no. 92006), they were treated either with the test compound vehicle DMSO, or with experimental compounds at a final concentration of either 10 or 100 nM for 2 hours. Thereafter, the culture medium was removed and cells were collected by scraping in Lysis Buffer (20 mM Tris HCl pH7.5, 150 mM NaCl, 1 mM EGTA, 1 mM EDTA, 1% o Triton and 1% o NP-40) containing protease and phosphatase inhibitors (Halt™ Protease&Phosphatase inhibitor cocktail 100× ThermioScientific cat. no. 1861281) and 1 mM PMSF (Fluka cat. no. 93482). Cleared lysates were stored in Eppendorfftubes at −80° C. until use, and protein concentration in lysates was determined using Pierce 660 nm Protein Assay Reagent (ThermioScientific cat. no. 22660). 20 μg proteins were diluted in 4× Laemmli buffer (Biorad cat. no. 161-0747) containing 10% beta-mercaptoethanol, separated by SDS-PAGE using 10% gels, and then transferred to PVDF membranes (Trans Blot Turbo Transfer Pack BioRad cat. no. 1704156) by Trans-Blot® Turbo™ System semidry blotting methodology (BioRad). Primary antibodies were incubated in TBS-0.1% Tween-20 buffer containing 3% BSA Bovine Albumin Fr.V (Millipore cat. no. 81-053-3) overnight at 4° C. The following primary antibodies were used: Mouse anti-phosphoepitope SR proteins clone 1H4 (Millipore cat. no. MABE50) diluted 1:5000, and rabbit anti-GAPDH clone 14C10 (Cell Signaling cat. no. 2118S) to control for equal protein loading, diluted 1:2000. HRP-conjugated secondary antibodies were incubated one hour at room temperature diluted 1:5000 in TBS-0.1% Tween-20 buffer containing […] nonfat-dried bovine milk (Sigma cat. no. M7409). The following secondary antibodies were used: Goat anti-mouse-HRP (Jackson cat. no. 115-035-146) and goat anti-rabbit-HRP (Jackson cat. no. 111-035-144). Membranes were incubated with ECL Prime Western Blot Detection Reagent (Amersham cat. no. RPN2236) to detect specific signals using Fusion SOLO S device (Vilber Lourmat). Pixel intensity of the phopsho-SRSF6 (MW 55 kDa in reference to markers) and GAPDH (MW 37 kDa) signals in the Western blots were determined using Evolution-Capt image analysis software (v17.01, Vilber Lourmat). DMSO control was used to set the phospho-SRSF6 signal at baseline, phospho-SRSF6 signals for each sample were normalized by the respective GAPDH signals and percent intensity of P—SRSF6 signal at 10 and 100 nM compound compared to DMSO control was calculated (see FIG. 1).

recombinant human CLK3 = target: T1, recombinant human CLK3 (Homo sapiens, UniProt P49761); experiment: CLK3 kinase assay (LANCE Ultra); format: biochemical; conditions: CLK3 0.5 nM, ATP 300 μM, 3 hours at 30° C.
T1 construct: purchased Thermo Fisher Scientific PV3826
T1 sequence (P49761 whole entry): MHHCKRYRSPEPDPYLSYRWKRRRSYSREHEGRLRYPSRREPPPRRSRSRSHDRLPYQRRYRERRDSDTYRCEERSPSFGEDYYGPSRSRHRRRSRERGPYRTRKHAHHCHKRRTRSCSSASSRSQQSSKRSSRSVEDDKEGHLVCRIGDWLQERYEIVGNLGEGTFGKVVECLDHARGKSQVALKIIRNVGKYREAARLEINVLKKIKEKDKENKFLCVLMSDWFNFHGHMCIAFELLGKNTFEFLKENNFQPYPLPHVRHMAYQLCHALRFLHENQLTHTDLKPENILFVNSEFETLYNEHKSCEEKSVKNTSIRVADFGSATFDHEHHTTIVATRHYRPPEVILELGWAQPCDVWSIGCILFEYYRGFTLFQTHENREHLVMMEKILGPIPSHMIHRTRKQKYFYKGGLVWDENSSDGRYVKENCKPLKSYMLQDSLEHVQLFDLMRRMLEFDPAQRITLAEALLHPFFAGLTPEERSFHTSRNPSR
In short: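 Recombinant human CLK3 (0.5 nM) with ULight-CREBtide (50 nM) and 300 μM ATP, 3 h at 30 °C in kinase buffer; EDTA stop, then Eu-anti-phospho-CREB antibody (2 nM, 1 h RT), TR-FRET read at 665/620 nm. Inhibition normalized to DMSO and no-ATP wells; IC50 from 4-parameter fit, ten 1:3 concentrations in duplicate.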

pIC50 (recombinant human CLK3): 7.00 to 7.52
SMILES: COCCN(C)c1c(O[C@H]2CC[C@H](N)CC2)ccc2c1CC(C)(C)c1c(N)ncnc1-2 [Example 13, 8-(trans-4-aminocyclohexoxy)-N7-(2-methoxyethyl)-N7,5,5-trimethyl-6H-benzo[h]quinazoline-4,7-diamine]
inhibition at 0.01 µM ([1]; 10 nM, read-out: >50% p-SRSF6 reduction at 10 nM): < 50% | inhibition at 0.1 µM ([1]; 100 nM, read-out: >50% p-SRSF6 reduction at 100 nM): > 50%
